Like-named read-outs stand apart in the source and are kept apart here.
Experiments:
[1] = biological target: VIM-2 (Escherichia coli, UniProt Q5U7L7); experiment: Enzymatic metallo-β-lactamase assay on purified VIM-2; type: biochemical; conditions: for Ki: approximated from Dixon plots (1/v vs [I]) at one constant substrate concentration, ± SE, read-out: Estimated inhibition constant Ki VIM-2; for logIC50 VIM-2: log of IC50, ± SEM of logIC50; for IC50: purified enzyme 1 nM, nitrocefin 15 μM, pH 7.2, 25 °C
Protocol: (§1) A few inhibitors were tested up to 1600 μM to ensure nearly complete inhibition. Solutions of 100 μL consisting of buffer, purified enzyme (1 nM for GIM-1 and VIM-2, 5 nM for NDM-1), inhibitor and reporter substrate nitrocefin (15 μM for VIM-2, 2 μM for GIM-1) or imipenem (30 μM for NDM-1) were incubated in triplicates on a 96 well plate for 5 min at 25 °C. Buffer solution consisted of 50 mM HEPES pH 7.2, 50 μM ZnSO4 and 0.4 mg/ml bovine serum albumine. Inhibitors were dissolved in DMSO but diluted to assure <2% DMSO in measured assay. Absorbance was measured at 482 nm (nitrocefin) and 300 nm (imipenem) on a SpectraMax M4 spectrophotometer. The initial velocity at each inhibitor concentration was analyzed in GraphPad Prism v9.3.1 and fitted to dose-response curves by non-linear regression (log [inhibitor] vs response) used to calculate IC50 (Supplementary Tables S2–5).

[2] = biological target: T1, GIM-1 (Pseudomonas aeruginosa, UniProt Q704V1); experiment: Enzymatic metallo-β-lactamase assay on purified GIM-1; type: biochemical; conditions: approximated from Dixon plots (1/v vs [I]) at one constant substrate concentration; ± SE; read-out: Estimated inhibition constant Ki GIM-1
[3] = MTT cytotoxicity assay; type: cell-based; conditions: human, HepG2 cells
Protocol: Cytotoxic activity of the compounds was measured through the MTT colorimetric assay as previously described[60] using the Colorimetric (MTT) Kit for Cell Survival and Proliferation (Merck/Millipore; Darmstadt, Germany). HepG2 cells (human hepatocellular carcinoma cell line) were kept in penicillin/streptomycin-free medium overnight and then they were treated with the compounds for 24 h. Subsequently, the MTT reagent was added to the cells and after 3 h of incubation, MTT-derived formazan crystals were solubilized in acidified isopropanol (0.1 mL isopropanol with 0.04 N HCl). Absorbance was measured with multiscan spectrophotometer (Thermo Fisher Scientific) at 530 nm test and 630 nm reference wavelengths. Cell viability was expressed as the percentage of viable, untreated cells. CC50 values were determined with GraphPad Prism software (v9.3.1) and adjusted to dose-response curves by non-linear regression (Supplementary Table S7).
8. Cytotoxocity against HepG2 cells
Table S7. CC50 values and viability curves of metallo-β-lactamase inhibitors tested on HepG2 […]
cells. […]
range. Data are shown as % via bility values ± SEM (n=4). Calculations were done using […]
Inhibitors CC50 (μM) HepG2 […]

[4] = Long term stability in buffer with 2.5% DMSO (LC-MS); type: physicochemical; conditions: 20 mM KPO4, 0.1 mM ZnCl2, pH 7.0 + 2.5% DMSO; LC-MS 254 nm
Text: Reagents, reactants, solvents and drying agents for synthesis, work-up and purification were purchased from commercial vendors (Sigma-Aldrich, VWR, Merck, Fluorochem, Thermo Fisher Scientific, Solveco), and if not stated otherwise they were used without further purification. Reactions and long term stability of the final compounds in buffer were monitored using LC-MS (Agilent 1260 Infinity II) equipped with an ESI-Q detector (Infinitylab LC-MSD) using Agilent InfinityLab Poroshell 120 C18 columns (2.7 μm, ϕ 2.1 mm L 50 mm or 2.7 μm, ϕ 4.6 mm L 50 mm). The intermediates were purified using VWR silica gel 60 (40–63 μm) with a Biotage Isolera One flash column chromatography instrument. The final products were purified with preparative RP-HPLC (VWR LaPrep P110) with single wavelength detection (254 nm), using a Kinetex C8 column (5 μm, 100 Å, ϕ 21.2 mm L 250 mm) and gradients of CH3CN/H2O + 0.1% formic acid as the mobile phase at a 10 mL/min flow rate. Analytical HPLC data were acquired on a VWR LaChrome ELITE system using an ACE3 C8 (3 μm, 300 Å, ϕ 3.0 mm L 100 mm) or a Kinetex C18 columns (5 μm, 100 Å, ϕ 3.0 mm L 150 mm). NMR spectra were recorded on a Varian Agilent MR400-DD2 400 MHz spectrometer equipped with a OneNMR probe, Bruker Avance Neo 500 MHz spectrometer equipped with a cryogenic TXO probe, or a Bruker Avance Neo 600 MHz spectrometer equipped with a TCI cryogenic probe. The chemical shifts are reported using the residual solvent signal as an indirect reference to TMS.
4. Long term stability of the final compounds in buffer with 2.5% DMSO
The long term stability of the final compounds in buffer (20 mM KPO4, 0.1 mM ZnCl2, pH 7.0 + 2.5% DMSO) were monitored using LC-MS (Agilent 1260 Infinity II) equipped with an ESI-Q detector (Infinitylab LC-MSD) using Agilent InfinityLab Poroshell 120 C18 column (2.7 μm, ϕ 4.6 mm L 50 mm) at 254 nm with a 7 min long gradient method (5% to 95% CH3CN) of CH3CN/H2O + 0.1% formic acid as the mobile phase at a 1.0 mL/min flow rate. The samples were measured right after dissolving them in buffer, and after 1 month of keeping the same samples dissolved in the same buffer. The main peaks (> 95%) and impurities with > 1% are […]
Figure S14. Compound 5a right after dissolving it in buffer.
Figure S15. Compound 5a kept in buffer for 1 month. […]

[5] = biological target: T1, GIM-1; experiment: Enzymatic metallo-β-lactamase assay on purified GIM-1; type: biochemical; conditions: for logIC50 GIM-1: log of IC50, ± SEM of logIC50; for IC50: purified enzyme 1 nM, nitrocefin 2 μM, pH 7.2, 25 °C
Protocol: as §1

[6] = biological target: NDM-1 (Klebsiella pneumoniae, UniProt C7C422); experiment: Enzymatic metallo-β-lactamase assay on purified NDM-1; type: biochemical; conditions: for Ki: approximated from Dixon plots (1/v vs [I]) at one constant substrate concentration, ± SE, read-out: Estimated inhibition constant Ki NDM-1; for logIC50 NDM-1: log of IC50, ± SEM of logIC50; for IC50: purified enzyme 5 nM, imipenem 30 μM, pH 7.2, 25 °C
Protocol: as §1

[7] = biological target: T2, 15N-labelled VIM-2 (Escherichia coli, UniProt Q5U7L7); experiment: 1H,15N-HSQC titration of VIM-2; type: binding; conditions: 10 equivalents of compound, 600 MHz, pH 7.0, 25 °C
T2 construct: made in house
Protocol: The ^1H, ^15N-HSQC spectra for the titration experiments were recorded on a Bruker Avance Neo 600 MHz spectrometer equipped with a 5 mm TCI cryogenic probe at 25 °C. The U-[^15N]-labeled VIM-2 was prepared in a buffer of 20 mM KPO4, 0.1 mM ZnCl2, at pH 7.0, containing 85% H2O/15% D2O at a concentration of 0.25 mM. The U-[^15N]-labeled NDM-1 was used in a buffer of 20 mM HEPES, 0.1 mM ZnCl2, at pH 7.0, containing 85% H2O/15% D2O at a concentration of 0.25 mM. The ligands 5d, 5g, 5i, 5j (for VIM-2 titrations) and 5 f (for NDM-1 titration) were dissolved in the same buffer as the corresponding enzymes. Spectra were recorded using solvent suppression, 1024 points in f1, 16 transients, 512 increments in f2 and a relaxation delay of 0.2 s. The titrations were carried out with 0, 0.25, 0.50, 1.00, 1.50, 2.25, 3.00, 4.00, 5.00, 7.00, 10.0 equivalents of the inhibitors.
Figure S47. Superimposition of the 1H,15N-HSQC spectrum (600 MHz, pH 7.0, 25 °C) of
VIM-2 in the absence (blue) and in the presence (green) of 10 molar equivalent of compound
5j. Buffer: 20 mM KPO4, 0.1 mM ZnCl2, with 15% D2O.
Chemical shift perturbation values (CSP, ΔδNH) were calculated as the weighted average of
the chemical shift changes in f1 (ΔδN) and f2 (ΔδH) dimensions using the following equation 8:
∆δ = √∆δ 2 + ( N ); R = 6.5
Figure S48. Linear regression of the chemical shift perturbations of compound 5g (IC50 =
12 μM) as a function of the chemical shift perturbations of compounds 5c (yellow circle), 5d
(grey square), 5i (green triangle) and 5j (blue circle) for VIM-2. The data of the studied […]

[8] = HepG2, MTT, read-out: CC50 (in viability curve)
[9] = MTT, 0.0025 mM - 1mM concentration range, read-out: Cytotoxicity CC50 HepG2

T1 sequence (Q704V1 entry or part of it): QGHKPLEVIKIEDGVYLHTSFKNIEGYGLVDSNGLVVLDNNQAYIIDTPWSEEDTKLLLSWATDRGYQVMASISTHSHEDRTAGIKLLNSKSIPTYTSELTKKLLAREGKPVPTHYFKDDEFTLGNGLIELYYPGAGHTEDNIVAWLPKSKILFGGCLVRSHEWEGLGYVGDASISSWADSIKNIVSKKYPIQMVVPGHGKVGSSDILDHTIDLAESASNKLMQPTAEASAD
Sequence of NDM-1 (C7C422 29-270, looked up, species assumed): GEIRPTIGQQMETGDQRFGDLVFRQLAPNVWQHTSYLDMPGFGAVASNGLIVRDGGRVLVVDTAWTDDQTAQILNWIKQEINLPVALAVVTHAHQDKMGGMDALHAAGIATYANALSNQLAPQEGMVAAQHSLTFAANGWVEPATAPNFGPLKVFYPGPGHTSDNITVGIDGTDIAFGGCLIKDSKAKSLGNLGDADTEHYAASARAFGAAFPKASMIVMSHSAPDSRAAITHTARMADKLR

| Ki [1] | logIC50 VIM-2 [1] | IC50 [1] | Ki [2] | main peak Area% kept in buffer for 1 month [4] | main peak Area% right after dissolving in buffer [4] | logIC50 GIM-1 [5] | IC50 [5] | Ki [6] | logIC50 NDM-1 [6] | IC50 [6] | Compound | CC50 at 24 h [3, 8] | CC50 at 24 h [3, 9] | Mean chemical shift perturbation, VIM-2 [7] |
| --- | --- | --- | --- | --- | --- | --- | --- | --- | --- | --- | --- | --- | --- | --- |
| 36 ± 6 µM | 1.85 ± 0.07 μM | 71 µM | 144 ± 36 µM | 95.67% | 95.87% | 1.30 ± 0.08 μM | 20 µM | 617 ± 95 µM | 2.34 ± 0.09 log10(IC50/μM) | 217 µM | O=C(NC(c1ccccc1O)P(=O)(O)O)c1cccs1 (centres unmarked) [5a] | 4500 µM | 4550 µM |  |
| 112 ± 11 µM | 2.10 ± 0.08 μM | 124 µM | 162 ± 21 µM | 95.03% | 95.46% | 2.37 ± 0.21 μM | 236 µM | 451 ± 57 µM | 1.99 ± 0.13 log10(IC50/μM) | 97 µM | O=C(NC(c1ccccc1O)P(=O)(O)O)c1ccsc1 (centres unmarked) [5b] | 1800 µM | 1830 µM |  |
| 72 ± 7 µM | 1.90 ± 0.11 μM | 79 µM | 76 ± 5 µM | 98.87% | 98.53% | 1.73 ± 0.12 μM | 53 µM |  |  |  | O=C(NC(c1ccccc1O)P(=O)(O)O)c1cc2c(s1)CCCC2 (centres unmarked) [5e] | > 1000 µM | > 1000 µM |  |
| 85 ± 12 µM | 1.74 ± 0.05 μM | 55 µM | 118 ± 20 µM | 95.39% | 95.97% | 1.54 ± 0.13 μM | 35 µM | 363 ± 86 µM | 1.93 ± 0.09 log10(IC50/μM) | 85 µM | O=C(NC(c1ccccc1O)P(=O)(O)O)c1ccccc1 (centres unmarked) [5h] | > 1000 µM | > 1000 µM |  |
| 119 ± 13 µM | 1.71 ± 0.07 μM | 51 µM | 189 ± 76 µM | 98.27% | 98.10% | 1.90 ± 0.08 μM | 80 µM | 262 ± 41 µM | 1.81 ± 0.11 log10(IC50/μM) | 65 µM | O=C(Cc1cc2ccccc2s1)NC(c1ccccc1O)P(=O)(O)O (centres unmarked) [5k] | 5600 µM | 5610 µM |  |
| 39 ± 5 µM | 1.42 ± 0.18 μM | 26 µM | 193 ± 41 µM | 98.10% | 98.54% | 1.71 ± 0.07 μM | 51 µM | 411 ± 160 µM | 1.83 ± 0.05 log10(IC50/μM) | 67 µM | O=C(Cc1csc2ccccc12)NC(c1ccccc1O)P(=O)(O)O (centres unmarked) [5l] | 3900 µM | 3910 µM |  |
| 74 ± 7 µM | 1.87 ± 0.35 μM | 74 µM | 213 ± 22 µM |  | 96.96% | 2.08 ± 0.53 μM | 121 µM |  |  |  | O=C(Cc1ccccc1)NC(c1ccccc1O)P(=O)(O)O (centres unmarked) [5m] | > 1000 µM | > 1000 µM |  |

| Compound | Ki [1] | logIC50 VIM-2 [1] | IC50 [1] | Ki [2] | main peak Area% kept in buffer for 1 month [4] | main peak Area% right after dissolving in buffer [4] | logIC50 GIM-1 [5] | IC50 [5] | Ki [6] | logIC50 NDM-1 [6] | IC50 [6] | CC50 at 24 h [3, 8] | CC50 at 24 h [3, 9] | Mean chemical shift perturbation, VIM-2 [7] |
| --- | --- | --- | --- | --- | --- | --- | --- | --- | --- | --- | --- | --- | --- | --- |
| O=C(NC(c1ccccc1O)P(=O)(O)O)c1cc2ccccc2s1 (centres unmarked) [5c] | 71 ± 6 µM | 2.01 ± 0.05 μM | 103 µM | 102 ± 10 µM | 97.59% | 97.20% | 2.01 ± 0.09 μM | 101 µM |  |  |  | 2900 µM | 2930 µM | 0.05 ppm |
| O=C(NC(c1ccccc1O)P(=O)(O)O)c1csc2ccccc12 (centres unmarked) [5d] | 31 ± 5 µM | 1.33 ± 0.03 μM | 21 µM | 64 ± 13 µM | 97.15% | 97.92% | 1.01 ± 0.19 μM | 10 µM |  |  |  | 4400 µM | 4440 µM | 0.04 ppm |
| O=C(Cc1ccsc1)NC(c1ccccc1O)P(=O)(O)O (centres unmarked) [5j] | 88 ± 16 µM | 1.57 ± 0.03 μM | 37 µM |  | 96.88% | 95.28% | 2.01 ± 0.06 μM | 103 µM | 196 ± 13 µM | 2.37 ± 0.07 log10(IC50/μM) | 232 µM | 4000 µM | 3970 µM | 0.04 ppm |
